Source: patent publication US6869956B2, “Methods of treating inflammatory and immune diseases using inhibitors of IκB kinase (IKK)” (Bristol-Myers Squibb Company, priority 2000, dated 2005)

Experiments:
[1] = test system: transplanted hearts (graft rejection); assay: Murine neonatal heart to ear transplants, graft survival; type: in vivo, BALB/c mice
Procedure: Cardiac transplants were performed as described by Fulmer et al. (Fulmer, R. I. et al. The American Journal of Anatomy 113:273-281, 1963). Neonatal hearts were obtained from newborn C57BL/6 mice not more than 48 hours after birth. The hearts were transplanted into recipient BALB/c mice, which were prepared under anesthesia by making a small incision at the base of the ear pinna and forming a pocket by gently lifting the skin away from the ear. The incision permitted the insertion of the donor heart subcutaneously into the pocket. […] The pulsations of the heart were measured by contractile activity with an appropriate electrocardiogram (ECG) monitoring device. The contractile activity of the transplanted graft was monitored daily. The time of graft rejection was defined as the day after transplantation on which contractile activity ceased. Without therapeutic intervention, the host mounts an immune response to the transplanted heart (i.e., graft rejection). This immune response causes the transplanted heart to cease beating typically 10-14 days post transplantation.
Test compounds were administered in daily doses either alone or in combination with other therapies, such as Cyclosporine A (15 mg/kg, orally, “p.o.”) or CTLA4-Ig (200 μg in 200 μl PBS given intraperitoneally on only days 0, 2, and 4). Table 2 presents the effects of test compounds on median survival time of transplanted hearts, either alone or in combination with Cyclosporine A (CsA). Table 3 presents the effects of test compounds on median survival time of transplanted hearts, either alone or in combination with CTLA4-Ig.

LPS-induced serum TNFα = LPS-induced serum TNFα in mice; type: in vivo, BALB/c mice; conditions: p.o.
Procedure: As a measure of activity against NF-κB-dependent TNFα production in vivo, test compounds were administered to BALB/c mice subsequently challenged with an intravenous dose of E. coli LPS (1 μg in 100 μL phosphate-buffered saline). One hour after LPS challenge, blood was collected from the mice and the levels of TNFα in the serum measured by EIA(R&D Systems). Inhibition was calculated from control animals which received LPS challenge with no test compound.

[2] = test system: collagen-induced arthritis; assay: Murine model of collagen-induced arthritis; type: in vivo, DBA/1 LacJ male mice; parameters: Cumulative arthritis injury score (±sem): scale not given here
Procedure: DBA/1 LacJ male mice 6-8 wk (Jackson Laboratories; Bar Harbor, Me.) were immunized subcutaneously on day 0 and on day 21 with 100 μg bovine type 11 collagen in 0.1 mL RIBI Adjuvant System (RAS) with monophosphoryl lipid A(RIBI lmmunoChem Research; Hamilton, Mont.). In this model, disease onset occurs within one week after the second collagen injection.
When treated in a preventative mode, test compounds were administered daily beginning on day 0 through day 41.
In the established (i.e. therapeutic) mode, the administration of test compounds was initiated only after paw inflammation of an animal had achieved a score of 2 (as defined below), at which time, the animal was randomly assigned to a treatment group. Treatment continued daily for all four paws as described below.
Following the Day 21 booster, mice were regularly monitored for the development and severity of paw inflammation.
Clinical paw scores for all four paws were summed for each mouse and the mean ± standard deviation (SD) was calculated for each treatment group.
Histological scoring involved evaluating histologically and grading semi-quantitatively tibiotarsal joints of sacrificed mice, specifically examining the severity of inflammation, synovial hyperplasia, bone resorption, and cartilage erosion. Cumulative arthritis injury scores for each group were compared by the nonparametric Kruskal-Wallis analysis of variance.

Pharmacokinetics in mice = type: in vivo; conditions: mouse, plasma, BALB/c mice
Procedure: Compound 6 was administered to BALB/c mice either per orally (p.o.) or intravenously (i.v.). Blood was drawn at various times (0.5 to 4 hours) after dosing and the plasma drug levels measured by liquid chromatography-mass spectral analysis.

[3] = test system: TNFα production in THP-1 cells; assay: TNFα production assay in LPS-stimulated THP-1 cells; type: cell-based; conditions: Homo sapiens, 6 hours, ELISA, read-out: IC50 in TNF-α production assay
Procedure: THP-1 (human monocytic cell line) obtained from ATCC was cultured in RPMI-1640 supplemented with 10% FBS, sodium pyruvate, HEPES, 2-mercaptoethanol, Penicillin/Streptomycin. To a 96-well plate containing THP-1 cells (1.4×10^6/mL, 2.5×10^5 cells/well) in 180 μL RPMI-1640 was added 20 μL of the test compound in 10% DMSO. […] After one hour at 37° C., 20 μL of 1000 ng/mL lipopolysaccharide (LPS from Salmonella typhosa, Sigma) was added to each well. After an additional 6 hours at 37° C., the supernatants were collected following a 5 minute centrifugation of the plate to pellet the cells. The amount of TNFα in these supernatants was then measured using a TNFα-specific ELISA (Pharmingen). […] IC50 values were calculated from the percentage inhibition at various doses.

[4] = test system: ovalbumin-induced inflammatory cell infiltration in the lung; assay: Ovalbumin-induced inflammatory cell infiltration into the lung of sensitized mice; type: in vivo, BALB/c mice; conditions: for Total Inflammatory Cells in BAL: days 14 to 17, BAL on day 18
Procedure: In the pulmonary inflammation animal model, BALB/c mice were sensitized by an intraperitoneal injection of 0.1 mL alum-precipitated antigen containing 40 μg ovalbumin adsorbed to aluminum hydroxide gel on days 0 and 10. On day 14, animals received intranasal challenge with 100 μg ovalbumin in 50 μl saline (PBS). Mice were injected intraperitoneally with antigen to sensitize the animals prior to intranasal challenge to induce lung inflammation. Administration of the test compound was given on days 14 to 17. On day 18, bronchoalveolar lavage fluid (BAL) was collected for measurements of total inflammatory cell infiltration (eosinophils, monocytes, lymphocytes, and neutrophils).

DSS-induced colitis = assay: Dextran sulfate sodium-induced murine model of inflammatory bowel disease; type: in vivo, Swiss-Webster mice; conditions: for Mean clinical score: colon, scale 0-3
Procedure: In this model, Swiss-Webster mice (8 weeks old, 5 animals per treatment group) were given 6% DSS in their drinking water for 7 consecutive days to induce intestinal inflammation. Test compounds were administered daily throughout the study. On day 9, animals were sacrificed and the colons were removed for clinical and histological evaluation.
Clinical scoring was determined by the gross clinical evaluation of the injury on a scale from 0 (normal) to 3 (severe) as detailed in Table 7.
For histological scoring, colon sections were graded as to the severity of crypt injury and the degree of inflammation. The crypt injury was scored as detailed in Table 8, wherein the crypt is part of the glandular make-up of the colon.
Tissue involvement was scored as detailed in Table 9. Any signs of crypt injury or inflammation, regardless of severity, constitute tissue involvement.
The injury histological score is defined as the product of the crypt injury grade and the tissue involvement grade. The scoring of severity of inflammation is detailed in Table 10.
The inflammation histological score is the product of the severity of inflammation grade and the extent of tissue involvement grade. Crypt injury and inflammatory scoring were performed on each colon section and a mean score and standard error were determined for each section. Cumulative crypt injury and inflammatory scores for each group were determined. The results of Table 12 present the cumulative injury and inflammation scores of colons in mice with DSS-induced colitis.

Compound: Cc1ccc2nc(NCCN)c3ncc(C)n3c2c1 [Compound 6, 4(2′-aminoethyl)amino-1,8-dimethylimidazo(1,2-a)quinoxaline]
- Median Graft Survival Time ([1]; CTLA4-Ig (200 μg i.p. days 0, 2, 4) plus Compound 6 50 mg/kg p.o.): 32 days
- Median Graft Survival Time ([1]; CTLA4-Ig (200 μg i.p. days 0, 2, 4) plus Compound 6 100 mg/kg p.o.): >60 days
- Median Graft Survival Time ([1]; Compound 6 50 mg/kg p.o. alone): 12 days
- Median Graft Survival Time ([1]; Cyclosporine A 15 mg/kg p.o. plus Compound 6 50 mg/kg p.o.): 29 days
- effect of combination with cyclosporine A or CTLA4-Ig on graft survival ([1]; co-administered with cyclosporine A or CTLA4-Ig): synergistic effects
- inhibition of the LPS-induced serum TNFα levels in vivo (LPS-induced serum TNFα; 10 mg/kg): 27-63%
- inhibition of the LPS-induced serum TNFα levels in vivo (LPS-induced serum TNFα; 30 mg/kg): 53-89%
- inhibition of the LPS-induced serum TNFα levels in vivo (LPS-induced serum TNFα; 50 mg/kg): 83-92%
- Cumulative arthritis injury score (±sem) ([2]; established mode, 10 mg/kg, two weeks after disease onset): 4.2 ± 1.0
- disease progression ([2]; established mode, 30 mg/kg p.o., vs vehicle): significantly inhibited disease progression
- Cumulative arthritis injury score (±sem) ([2]; established mode, 30 mg/kg, two weeks after disease onset): 2.1 ± 0.9
- disease progression ([2]; established mode, 100 mg/kg p.o.): significant disease resolution
- Cumulative arthritis injury score (±sem) ([2]; established mode, 100 mg/kg, two weeks after disease onset): 0.9 ± 0.5
- Cumulative arthritis injury score (±sem) ([2]; preventative mode, 10 mg/kg): 5.3 ± 1.7
- Cumulative arthritis injury score (±sem) ([2]; preventative mode, 30 mg/kg): 0.4 ± 0.4
- disease onset ([2]; preventative mode, 30 mg/kg p.o. daily): inhibited disease onset
- Cumulative arthritis injury score (±sem) ([2]; preventative mode, 30 mg/kg, listed as compound 6, 30 mg/kg): 0.4
- Cumulative arthritis injury score (±sem) ([2]; preventative mode, 100 mg/kg): 0.0
- incidence of disease (FIG. 1) ([2]; preventative mode, 100 mg/kg daily, vs vehicle): significant difference in incidence of disease
- disease onset ([2]; preventative mode, 100 mg/kg p.o. daily): prevented any disease onset
- Cumulative arthritis injury score (±sem) ([2]; preventative mode, 100 mg/kg, listed as compound 6, 100 mg/kg): 0
- half-life (Pharmacokinetics in mice; iv, apparent terminal elimination phase after i.v. dose): 474 min
- bioavailability (Pharmacokinetics in mice; oral, AUC p.o. divided by AUC i.v.): 100%
- IC50 [3]: 4 µM
- Total Inflammatory Cells in BAL ([4]; 30 mg/kg p.o.): 2.8 × 10^6 ± 1.3 × 10^6
- Total Inflammatory Cells in BAL ([4]; 100 mg/kg p.o.): 2.2 × 10^6 ± 0.3 × 10^6
- total inflammatory cells in the lungs vs untreated mice ([4]; administration after ovalbumin challenge): statistically significant decrease in total inflammatory cells in the lungs
- Group Mean Inflammation Histological Score (DSS-induced colitis; 30 mg/kg p.o. daily): 7.58 ± 0.81
- Group Mean Injury Histological Score (DSS-induced colitis; 30 mg/kg p.o. daily): 4.83 ± 0.55
- Mean clinical score (DSS-induced colitis; 30 mg/kg p.o. daily): 1.10 ± 0.49
- Group Mean Inflammation Histological Score (DSS-induced colitis; 100 mg/kg p.o. daily): 6.82 ± 0.85
- Group Mean Injury Histological Score (DSS-induced colitis; 100 mg/kg p.o. daily): 5.66 ± 0.87
- Mean clinical score (DSS-induced colitis; 100 mg/kg p.o. daily): 1.00 ± 0.35
- clinical and histological score vs untreated mice (DSS-induced colitis; daily administration): statistically significant decrease in clinical and histological score
